Tests used:
Type in all cases: in vivo
[1] = system: AMARE (Amaranthus retoflexus, redroot pigweed); assay: greenhouse herbicidal test, post-emergence, AMARE; details: post-emergence method, application rate 0.5 kg/ha, scale from 0 to 100
Text: (§1) The culture containers used were plastic flowerpots containing loamy sand with approximately 3.0% of humus as the substrate. The seeds of the test plants were sown separately for each species.
(§2) For the post-emergence treatment, the test plants were first grown to a height of 3 to 15 cm, depending on the plant habit, and only then treated with the active ingredients which had been suspended or emulsified in water. For this purpose, the test plants were either sown directly and grown in the same containers, or they were first grown separately as seedlings and transplanted into the test containers a few days prior to treatment.
(§3) Depending on the species, the plants were kept at 10-25° C. or 20-35° C. The test period extended over 2 to 4 weeks. During this time, the plants were tended, and their response to the individual treatments was evaluated.
(§4) Evaluation was carried out using a scale from 0 to 100. 100 means no emergence of the plants, or complete destruction of at least the aerial moieties, and 0 means no damage, or normal course of growth. A good herbicidal activity is given at values of at least 70 and a very good herbicidal activity is given at values of at least 85.
(§5) The plants used in the greenhouse experiments belonged to the following species: […]

[2] = system: SETVI (Setaria viridis, green foxtail); assay: greenhouse herbicidal test, post-emergence, SETVI; details: post-emergence method, application rate 0.5 kg/ha, scale from 0 to 100
Text: as §1, §2, §3, §4, §5

[3] = system: APESV (Apera spica-venti, windgrass); assay: greenhouse herbicidal test, post-emergence, APESV; details: post-emergence method, application rate 0.5 kg/ha, scale from 0 to 100
Text: as §1, §2, §3, §4, §5

[4] = system: CHEAL (Chenopodium album, common lambsquarters); assay: greenhouse herbicidal test, post-emergence, CHEAL; details: post-emergence method, application rate 0.5 kg/ha, scale from 0 to 100
Text: as §1, §2, §3, §4, §5

[5] = system: GALAP (Galium aparine, catchweed bedstraw); assay: greenhouse herbicidal test, post-emergence, GALAP; details: post-emergence method, application rate 0.5 kg/ha, scale from 0 to 100
Text: as §1, §2, §3, §4, §5

[6] = system: LOLMU (Lolium multiflorum, Italian ryegrass); assay: greenhouse herbicidal test, post-emergence, LOLMU; details: post-emergence method, application rate 0.5 kg/ha, scale from 0 to 100
Text: as §1, §2, §3, §4, §5

[7] = system: CHEAL (Chenopodium album, common lambsquarters); assay: greenhouse herbicidal test, pre-emergence, CHEAL; details: pre-emergence method, application rate 0.5 kg/ha, scale from 0 to 100
Text: as §1
(§6) For the pre-emergence treatment, the active ingredients, which had been suspended or emulsified in water, were applied directly after sowing by means of finely distributing nozzles. The containers were irrigated gently to promote germination and growth and subsequently covered with transparent plastic hoods until the plants had rooted. This cover caused uniform germination of the test plants, unless this has been impaired by the active ingredients.
as §3, §4, §5

[8] = system: SETVI (Setaria viridis, green foxtail); assay: greenhouse herbicidal test, pre-emergence, SETVI; details: pre-emergence method, application rate 0.5 kg/ha, scale from 0 to 100
Text: as §1, §6, §3, §4, §5

| SMILES | herbicidal activity against AMARE [1] | herbicidal activity against SETVI [2] | herbicidal activity against CHEAL [4] | other results |
| --- | --- | --- | --- | --- |
| Cc1cccc([N+](=O)[O-])c1C=C1C(=O)N(C)C(C)(Cc2ccccc2)C(=O)N1C (racemic) [Example 56] | good to very good | good to very good |  |  |
| COc1cccc(Br)c1C=C1C(=O)N(C)C(C)(Cc2ccccc2)C(=O)N1C (racemic) [Example 43] | good to very good |  |  | herbicidal activity against APESV [3]: good (A good herbicidal activity is given at values of at least 70) |
| CN1C(=O)C(C)(Cc2ccccc2)N(C)C(=O)C1=Cc1c(C#N)ccc(F)c1F (racemic) [Example 18] | good to very good | good to very good | good to very good |  |
| CN1C(=O)C(C)(Cc2ccccc2)N(C)C(=O)C1=Cc1c(Cl)cccc1C#N (racemic) [Example 13] | good to very good | good to very good | good to very good |  |
| CN1C(=O)C(C)(Cc2ccccc2)N(C)C(=O)C1=Cc1ccccc1[N+](=O)[O-] (mixture of isomers) [Example 26] | good to very good | good to very good |  |  |
| CN1C(=O)C(C)(Cc2ccc(Cl)cc2)N(C)C(=O)C1=Cc1ccccc1C#N (racemic) [Example 137] |  |  |  | herbicidal activity against GALAP [5]: good (A good herbicidal activity is given at values of at least 70) |
| CN1C(=O)C(C)(Cc2ccccc2)N(C)C(=O)C1=Cc1c(F)cccc1C#N (racemic) [Example 12] | good to very good | good to very good | good to very good |  |
| CCC1(Cc2ccccc2)C(=O)N(C)C(=Cc2ccccc2C#N)C(=O)N1C (stereo not shown) [Example 3, 2-(5-Benzyl-5-ethyl-1,4-dimethyl-3,6-dioxopiperazin-2-ylidenemethyl)-benzonitrile] | good to very good |  | good to very good |  |
| CCN1C(=O)C(=Cc2ccccc2[N+](=O)[O-])N(C)C(=O)C1(C)Cc1ccccc1 (racemic) [Example 47] | good to very good | good to very good |  |  |
| CN1C(=O)C(C)(Cc2ccccc2)NC(=O)C1=Cc1ccccc1[N+](=O)[O-] (racemic) [Example 44] | good to very good | good to very good |  |  |
| CN1C(=O)C(C)(Cc2ccccc2)N(C)C(=O)C1=Cc1ccccc1Br (racemic) [Example 10] |  | good to very good |  | herbicidal activity against LOLMU [6]: good (A good herbicidal activity is given at values of at least 70) |
| CN1C(=O)C(C)(Cc2ccccc2)N(C)C(=O)C1=Cc1c(Cl)cccc1Br (racemic) [Example 11] | good to very good | good to very good | good to very good |  |
| COc1cccc(C#N)c1C=C1C(=O)N(C)C(C)(Cc2ccccc2)C(=O)N1C (racemic) [Example 14] |  | good to very good | good to very good |  |
| Cc1cccc(C#N)c1C=C1C(=O)N(C)C(C)(Cc2ccccc2)C(=O)N1C (racemic) [Example 16] | good to very good | good to very good | good to very good |  |
| CN1C(=O)C(CO)(Cc2ccccc2)N(C)C(=O)C1=Cc1ccccc1C#N (racemic) [Example 25] |  | good to very good | good to very good | herbicidal activity against CHEAL [7]: good (A good herbicidal activity is given at values of at least 70); herbicidal activity against SETVI [8]: good (A good herbicidal activity is given at values of at least 70) |
| CC(C)C1(Cc2ccccc2)C(=O)N(C)C(=Cc2ccccc2C#N)C(=O)N1C (racemic) [Example 24] | good to very good |  |  |  |
| CCc1cccc(C#N)c1C=C1C(=O)N(C)C(C)(Cc2ccccc2)C(=O)N1C (racemic) [Example 29] |  | good to very good |  |  |
| CN1C(=O)C(C)(Cc2ccccc2)NC(=O)C1=Cc1ccccc1C#N (racemic) [Example 39] | good to very good | good to very good | good to very good |  |
| CN1C(=O)C(C)(Cc2ccccc2)N(C)C(=O)C1=Cc1ccccc1C#N (racemic) [Example 7] | good to very good | good to very good | good to very good |  |
| CN1C(=O)C(C)(Cc2ccc(F)cc2)N(C)C(=O)C1=Cc1ccccc1C#N (racemic) [Example 138] | good to very good | good to very good |  |  |
